One may read the pIC50 as the negative decadic logarithm of the IC50, by convention in mol/L.

This is an account of results in ChEMBL document CHEMBL5226281, “Synergistic effects of curcumin and its analogs with other bioactive compounds: A comprehensive review” (Eur J Med Chem, 2021).

The subject of test [1] is Plasmodium falciparum. Briefly: Antimalarial activity against Plasmodium falciparum infected in mouse assessed as survival at 0.5 mg/kg, po measured after 40 days relative to control. Type of test: functional. Conditions: time 40 day.
The test system of test [2] is HSC-2. Briefly: Synergistic cytotoxicity against human HSC-2 cells. Type of test: functional, cell-based.
The nature of test [3]: Antiproliferative activity against rat AY-27 cells assessed as inhibition of cell growth incubated for 3 hrs by MTT assay. Also noted: scale not given: the % may be the effect or the level left. Type of test: functional.
Test [4] deals with DLD-1. The experiment in a line: Synergistic antiproliferative activity against human DLD-1 cells assessed as inhibition of cell growth. Type of test: functional, cell-based.
Test [5] addresses Mitogen-activated protein kinase 8 (Homo sapiens) (UniProt P45983). Briefly: Activation of JNK in human CMT12 cells. Type of test: cell-based.
The subject of test [6] is Y79. Briefly: Antiproliferative activity against human Y79 cells assessed as inhibition of cell growth incubated for 48 hrs by MTT assay. Type of test: functional, cell-based. To be noted: Y79, 48 h.
Test [7] is described as follows: Induction of apoptosis in rat AY-27 cells at 10 uM by Annexin V-PE and 7AAD staining based flow cytometry. Type of test: functional. (A flow cytometer gives signals particle by particle.)
For test [8], the system named is MCF7. Briefly: Synergistic antiproliferative activity against human MCF7 cells assessed as inhibition of cell growth. Details: scale not given: the % may be the effect or the level left. Type of test: functional.
The test system of test [9] is HCT-116. Briefly: Synergistic antiproliferative activity against human HCT-116 cells assessed as inhibition of cell growth. Type of test: functional, cell-based.
Test [10] can be described thus: Antiproliferative activity against human WERI-Rb-1 cells assessed as inhibition of cell growth incubated for 48 hrs by MTT assay. Type of test: functional, cell-based. Conditions: WERI-Rb-1, 48 h. A general note: Tetrazolium dyes change colour on reduction, which living cells bring about.

pIC50: −log10 of the molar value.

Sequence of Mitogen-activated protein kinase 8 (Homo sapiens) (P45983 whole entry): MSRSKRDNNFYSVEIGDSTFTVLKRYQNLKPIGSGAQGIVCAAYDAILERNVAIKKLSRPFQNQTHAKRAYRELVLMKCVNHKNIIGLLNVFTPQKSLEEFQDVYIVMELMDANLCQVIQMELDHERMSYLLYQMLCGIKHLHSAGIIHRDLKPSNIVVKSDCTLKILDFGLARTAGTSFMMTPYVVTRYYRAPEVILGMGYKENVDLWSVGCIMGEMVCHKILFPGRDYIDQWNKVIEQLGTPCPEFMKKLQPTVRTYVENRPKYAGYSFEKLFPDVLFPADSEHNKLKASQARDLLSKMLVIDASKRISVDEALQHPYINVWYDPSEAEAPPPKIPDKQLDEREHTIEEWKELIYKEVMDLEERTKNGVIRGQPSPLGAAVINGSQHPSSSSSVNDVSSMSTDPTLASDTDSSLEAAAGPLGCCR

With `C[C@@H]1CC[C@H]2[C@@H](C)C(=O)O[C@@H]3O[C@@]4(C)CC[C@@H]1[C@]32OO4` [ARTEMISININ], the Activity in test [1] came to 100%.

As to `COc1cc(/C=C/C(=O)CC(=O)/C=C/c2ccc(O)c(OC)c2)ccc1O` [CURCUMIN], the negative-log IC50 (pIC50) in [2] is 5.51; in test [4] it was 5.00; in test [6], 4.52; in test [9] it was 5.00; in test [10] it was 4.60. In addition, the Activity in [3] was determined as 85%; in [5], 30%; in test [7], 36%; in [8], 65.92%.

Regarding `Oc1ccc(/C=C/c2cc(O)cc(O)c2)cc1` [RESVERATROL], the negative logarithm of the IC50 (pIC50) in [2] is 5.51.
